Source: US11731967B2, “Inhibitors of TRIM33 and methods of use” (Dana-Farber Cancer Institute, Inc., priority 2017, dated 2023)
Where two headings read alike, the source gives them in different places.

Key:
[1] = system: recombinant PHD-bromodomain module of TRIM33; experiment: AlphaScreen binding assay, TRIM33 with biotinylated H3K9me3K18ac peptide; details: compounds shown in Table 2a
Text: (§1) The IC50 or EC50 of the compound of the present application can be determined by various methods known in the art. For example, the IC50 or EC50 of the compound of the present application can be measured by an AlphaScreen assay, as described herein (see FIG. 1).
(§2) A compound of the present application can be tested for its TRIM33 and/or TRIM24 activity with AlphaScreen Assay illustrated in FIG. 1.
(§3) Additionally, a second AlphaScreen® binding assay for TRIM24 as counter-screening assay for selectivity of TRIM33 over TRIM24 was developed. A focused compound libraries for TRIM33 inhibitor development was designed and synthesized using the design principle that is to connect the bromodomain binding motif/fragment to proper chemical scaffold via multi-component reactions, such as Groebke-Blackburn-Bienaymé (GBB) coupling reaction, to establish chemically bias library.
(§4) With multiple libraries synthesized (˜400 compounds) as described above, compounds were screened against TRIM33 and TRIM24 by AlphaScreen to establish structure activity relationship (SAR).

[2] = molecular target: T1, recombinant PHD-bromodomain module of TRIM33 (Homo sapiens, UniProt Q9UPN9); experiment: as above
T1 construct: rows headed: TRIM33 modulating activity; unit not given
T1 sequence (Q9UPN9 1-1127): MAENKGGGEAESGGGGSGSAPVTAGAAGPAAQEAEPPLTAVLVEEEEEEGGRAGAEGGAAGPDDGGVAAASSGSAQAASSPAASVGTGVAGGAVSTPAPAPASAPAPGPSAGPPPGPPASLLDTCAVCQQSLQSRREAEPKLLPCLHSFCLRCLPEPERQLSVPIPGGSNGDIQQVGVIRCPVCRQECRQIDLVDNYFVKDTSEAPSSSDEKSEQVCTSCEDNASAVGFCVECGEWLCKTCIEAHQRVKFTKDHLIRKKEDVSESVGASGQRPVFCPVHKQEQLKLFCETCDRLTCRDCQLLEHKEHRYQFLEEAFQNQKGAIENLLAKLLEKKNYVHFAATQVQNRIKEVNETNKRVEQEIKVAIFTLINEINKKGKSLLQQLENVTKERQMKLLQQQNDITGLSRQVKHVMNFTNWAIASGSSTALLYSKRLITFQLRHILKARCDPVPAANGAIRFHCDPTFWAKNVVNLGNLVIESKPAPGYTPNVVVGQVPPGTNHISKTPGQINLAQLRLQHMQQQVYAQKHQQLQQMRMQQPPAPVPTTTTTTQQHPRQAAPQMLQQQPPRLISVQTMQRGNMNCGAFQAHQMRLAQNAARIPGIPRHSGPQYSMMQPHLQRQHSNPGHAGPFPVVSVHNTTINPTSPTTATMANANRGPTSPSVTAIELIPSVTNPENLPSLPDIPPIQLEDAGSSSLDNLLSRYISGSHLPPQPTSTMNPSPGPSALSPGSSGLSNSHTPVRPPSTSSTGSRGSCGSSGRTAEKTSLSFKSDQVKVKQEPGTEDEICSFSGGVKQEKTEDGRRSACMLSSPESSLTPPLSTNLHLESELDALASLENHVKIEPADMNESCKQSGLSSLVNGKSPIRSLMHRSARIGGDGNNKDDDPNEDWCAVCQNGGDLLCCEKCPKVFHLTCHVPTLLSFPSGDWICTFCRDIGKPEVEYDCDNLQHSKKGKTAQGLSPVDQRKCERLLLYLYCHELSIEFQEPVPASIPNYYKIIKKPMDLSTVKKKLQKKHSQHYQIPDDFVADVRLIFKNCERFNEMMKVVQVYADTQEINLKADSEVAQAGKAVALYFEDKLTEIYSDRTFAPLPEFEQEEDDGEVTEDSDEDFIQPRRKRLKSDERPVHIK
Text: as §1, §2, §3, §4

TRIM24 = molecular target: T2, TRIM24 (Homo sapiens, UniProt O15164); experiment: AlphaScreen binding assay for TRIM24 (counter-screening assay)
T2 sequence (O15164 1-1050): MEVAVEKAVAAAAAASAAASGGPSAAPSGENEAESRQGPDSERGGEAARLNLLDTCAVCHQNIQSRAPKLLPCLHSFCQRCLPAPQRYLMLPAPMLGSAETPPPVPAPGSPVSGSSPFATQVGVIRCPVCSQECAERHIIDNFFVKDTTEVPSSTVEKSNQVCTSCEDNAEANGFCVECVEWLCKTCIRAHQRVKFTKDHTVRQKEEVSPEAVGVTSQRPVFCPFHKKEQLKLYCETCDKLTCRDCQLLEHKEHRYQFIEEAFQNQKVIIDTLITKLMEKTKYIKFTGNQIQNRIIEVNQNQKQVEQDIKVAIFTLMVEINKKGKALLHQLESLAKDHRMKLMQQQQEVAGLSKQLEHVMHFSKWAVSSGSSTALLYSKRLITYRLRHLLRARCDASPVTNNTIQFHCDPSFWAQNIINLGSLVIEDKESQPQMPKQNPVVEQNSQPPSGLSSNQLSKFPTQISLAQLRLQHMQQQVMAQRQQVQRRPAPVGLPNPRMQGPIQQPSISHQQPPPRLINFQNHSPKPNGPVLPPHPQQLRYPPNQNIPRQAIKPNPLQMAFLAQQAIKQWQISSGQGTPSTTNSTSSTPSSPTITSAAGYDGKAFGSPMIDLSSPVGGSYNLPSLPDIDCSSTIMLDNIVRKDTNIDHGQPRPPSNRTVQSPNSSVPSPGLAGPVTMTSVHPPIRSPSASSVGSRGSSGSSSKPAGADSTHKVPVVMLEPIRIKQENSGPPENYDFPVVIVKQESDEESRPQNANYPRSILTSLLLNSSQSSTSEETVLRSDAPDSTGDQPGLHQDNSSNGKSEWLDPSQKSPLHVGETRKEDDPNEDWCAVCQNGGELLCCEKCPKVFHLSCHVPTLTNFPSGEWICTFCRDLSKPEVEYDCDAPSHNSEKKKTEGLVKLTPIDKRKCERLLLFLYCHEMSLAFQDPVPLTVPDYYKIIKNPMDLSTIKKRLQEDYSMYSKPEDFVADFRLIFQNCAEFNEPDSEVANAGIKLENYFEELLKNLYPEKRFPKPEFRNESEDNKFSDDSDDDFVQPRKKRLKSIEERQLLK
Text: as §2, §3, §4

[3] = compounds shown in Table 2a, called TRIM33 IC50 in title of Table 5, unit inferred, read-out: TRIM33 modulating activity
[4] = compounds shown in FIG. 14A (Table 8), read-out: TRIM 24 IC50
[5] = compounds shown in FIG. 14A (Table 8), read-out: TRIM 33 IC50
[6] = compounds shown in FIG. 13A (Table 7), read-out: TRIM 24 IC50
[7] = compounds shown in FIG. 13A (Table 7), read-out: TRIM 33 IC50
[8] = compounds with R7/R7′ shown in FIG. 11A (Table 6), read-out: IC50 TRIM24
[9] = compounds with R7/R7′ shown in FIG. 11A (Table 6), read-out: IC50 TRIM33

## COc1ccc(CCNc2c(-c3ccc4nccn4c3)nc3ccccn23)cc1OC [Compound C2]
[1]
  Ratio of TRIM24 IC50 over TRIM33 IC50: 60.92
[2]; [3]
  IC50: 24.9 µM

## COCCNc1c(-c2nc[nH]c2C)nc2ccc(Br)cn12 [Compound F9]
[1]
  Ratio of TRIM24 IC50 over TRIM33 IC50: 3.62
[2]; [3]
  IC50: 37 µM

## COc1ccc(CCNc2c(-c3c[nH]c(C)n3)nc3ccc(Br)cn23)cc1OC [Compound E8]
[1]
  Ratio of TRIM24 IC50 over TRIM33 IC50: 18.38
[2]; [3]
  IC50: 3.46 µM

## CCCOc1ccn2c(C(C)=O)cc(-c3nc4cnccn4c3NCCOC)c2c1 [Compound D9]
[1]
  Ratio of TRIM24 IC50 over TRIM33 IC50: 20.66
[2]; [3]
  IC50: 138 µM

## CCCOc1ccn2c(C(C)=O)cc(-c3nc4ccc(C(=O)OC)cn4c3NCCc3ccc(OC)c(OC)c3)c2c1 [Compound H2]
[1]
  Ratio of TRIM24 IC50 over TRIM33 IC50: 463.20
[2]; [3]
  IC50: 12.2 µM

## Cc1nc[nH]c1-c1nc2ccc(C(=O)NN)cn2c1NCCN1CCOCC1 [pck-9295-134]
TRIM24; [4]
  IC50: 0.303 µM
[2]; [5]
  IC50: 1.29 µM

## COc1ccc(CCNc2c(-c3cn(S(=O)(=O)c4ccc(C)cc4)c4ccccc34)nc3ccccn23)cc1OC [pck-9295-174]
TRIM24; [4]
  IC50: 0.584 µM
[2]; [5]
  IC50: 0.553 µM

## CCOC(=O)CNc1c(-c2ccco2)nc2ccc(C(=O)OC)cn12 [pck-9295-035]
TRIM24; [6]
  IC50: 5.25 µM
[2]; [7]
  IC50: 10.8 µM

## Brc1ccc2nc(-c3ccc4nccn4c3)c(NCCN3CCOCC3)n2c1 [Compound G10]
[1]
  Ratio of TRIM24 IC50 over TRIM33 IC50: 6.43
[2]; [3]
  IC50: 214 µM

## COc1ccc(Nc2c(-c3nc[nH]c3C)nc3ccccn23)cc1 [pck-9295-014]
TRIM24; [6]
  IC50: 0.356 µM
[2]; [7]
  IC50: 0.641 µM

## Cc1[nH]cnc1-c1nc2ccccn2c1NCCN1CCOCC1 [pck-9295-013]
TRIM24; [6]
  IC50: 0.746 µM
[2]; [7]
  IC50: 3.78 µM

## COCCNc1c(-c2nc[nH]c2C)nc2ccc(C(=O)OC)cn12 [Compound F3]
[1]
  Ratio of TRIM24 IC50 over TRIM33 IC50: 11.61
[2]; [3]
  IC50: 44 µM

## COc1ccc(CCNc2c(-c3nc[nH]c3C)nc3cnccn23)cc1OC [Compound B8]
TRIM24; [8]
  IC50: 0.225 µM
[1]
  Ratio of TRIM24 IC50 over TRIM33 IC50: 1276.41
[2]; [3]
  IC50: 44.2 µM
[2]; [9]
  IC50: 0.283 µM

## CCCOc1ccn2c(C(C)=O)cc(-c3nc4ccc(C(=O)OC)cn4c3NCCOC)c2c1 [Compound H3]
[1]
  Ratio of TRIM24 IC50 over TRIM33 IC50: 37.43
[2]; [3]
  IC50: 77 µM

## COCCNc1c(-c2ccc3nccn3c2)nc2ccc(C(=O)OC)cn12 [Compound G3]
[1]
  Ratio of TRIM24 IC50 over TRIM33 IC50: 78.61
[2]; [3]
  IC50: 357 µM

## CCCOc1cc(OCCCCN(C)C)cc(Oc2cc3c(cc2NS(=O)(=O)c2ccc(OC)c(OC)c2)n(C)c(=O)n3C)c1 [IACS9571, reference compound]
[2]; [5]
  IC50: 6.32 µM
[2]; [3]
  IC50: 10.6 µM
[2]; [9]
  IC50: 13.4 µM

## CC(C)(C)Nc1c(-c2c(O)ccc3ccccc23)nc2ccccn12 [pck-9295-029]
TRIM24; [6]
  IC50: 7.76 µM
[2]; [7]
  IC50: 7.45 µM

## COCCNc1c(-c2ccco2)nc2ccc(C(=O)OC)cn12 [pck-9295-032]
[2]; [7]
  IC50: 21.8 µM

## CCCOc1ccn2c(C(C)=O)cc(-c3ccccc3S(C)(=O)=O)c2c1 [GS-A, reference compound]
[2]; [3]
  IC50: 50.9 µM

## COC(=O)c1ccc2nc(-c3nc[nH]c3C)c(NC3CCCCC3)n2c1 [Compound F1]
[1]
  Ratio of TRIM24 IC50 over TRIM33 IC50: 7.89
[2]; [3]
  IC50: 18.1 µM

## Cc1sc2c(c1C)C(c1ccc(Cl)cc1)=N[C@@H](CC(=O)NCCCCCCCCNC(=O)COc1cccc3c1C(=O)N(C1CCC(=O)NC1=O)C3=O)c1nnc(C)n1-2 (stereo partly drawn) [dBET6, reference compound]
TRIM24; [8]
  IC50: 1.96 µM
[2]; [9]
  IC50: 4.69 µM

## Cc1[nH]cnc1-c1nc2cnccn2c1NC1CCCCC1 [Compound B7]
[1]
  Ratio of TRIM24 IC50 over TRIM33 IC50: 0.78
[2]; [3]
  IC50: 116 µM

## CCCOc1ccn2c(C(C)=O)cc(-c3nc4ccc(C(=O)OC)cn4c3NC3CCCCC3)c2c1 [Compound H1]
[1]
  Ratio of TRIM24 IC50 over TRIM33 IC50: 7.82
[2]; [3]
  IC50: 32.6 µM

## COc1ccc(Nc2c(-c3c[nH]c(C)n3)nc3ccc(Br)cn23)cc1 [pck-9295-016]
TRIM24; [6]
  IC50: 0.818 µM
[2]; [7]
  IC50: 0.538 µM

## Cc1[nH]cnc1-c1nc2ccc(Br)cn2c1NCCN1CCOCC1 [Compound F10]
[1]
  Ratio of TRIM24 IC50 over TRIM33 IC50: 4.48
[2]; [3]
  IC50: 26.2 µM

## COC(=O)c1ccc2nc(-c3cn(S(=O)(=O)c4ccc(C)cc4)c4ccccc34)c(NCc3ccccc3)n2c1 [pck-9295-175]
TRIM24; [4]
  IC50: 0.415 µM
[2]; [5]
  IC50: 0.32 µM

## COc1ccc(CCNc2c(-c3nc(C)n4ccccc34)nc3ccccn23)cc1OC [pck-9295-173]
TRIM24; [4]
  IC50: 9.44 µM
[2]; [5]
  IC50: 44.3 µM

## Brc1ccc2nc(-c3ccc4nccn4c3)c(NC3CCCCC3)n2c1 [Compound G7]
[1]
  Ratio of TRIM24 IC50 over TRIM33 IC50: 0.83
[2]; [3]
  IC50: 121 µM

## COc1ccc(CCNc2c(-c3c[nH]c(C)n3)nc3ccccn23)cc1OC [Compound A2]
[1]
  Ratio of TRIM24 IC50 over TRIM33 IC50: 32.77
[2]; [3]
  IC50: 1.36 µM

## COc1ccc(CCNc2c(-c3c[nH]c(C)n3)nc3cnccn23)cc1OC [Compound A8]
[2]; [3]
  IC50: 269 µM

## COCCNc1c(-c2c[nH]c(C)n2)nc2cnccn12 [Compound A9]
[1]
  Ratio of TRIM24 IC50 over TRIM33 IC50: 321.31
[2]; [3]
  IC50: 286 µM

## COC(=O)c1ccc2nc(-c3nc[nH]c3C)c(NCCN3CCOCC3)n2c1 [pck-9295-060]
TRIM24; [4]
  IC50: 0.308 µM
[2]; [5]
  IC50: 1.93 µM

## COC(=O)c1ccc2nc(-c3nc[nH]c3C)c(NCCc3ccc(OC)c(OC)c3)n2c1 [Compound F2]
[1]
  Ratio of TRIM24 IC50 over TRIM33 IC50: 29.84
[2]; [3]
  IC50: 12.6 µM
